Entries after “also recorded” stand apart in the source; their conditions may differ.

Data set [1] concerns carrageenan-induced edema. As to the kind of experiment: Edema assessment of the carrageenan-injected paw (plethysmometer). Format: in vivo, rat. The conditions noted are these: rats, 3 hr after carrageenan; Alda-1-treated versus vehicle-treated. How it is done:
Edema Assessment. Inflammation-induced edema of the injected paw was assessed using a plethysmometer (Ugo Basile) (Clapper J R, et al., (2010) Anandamide suppresses pain initiation through a peripheral endocannabinoid mechanism. Nature neuroscience 13: 1265-1270; Van Arman C G, et al., (1965) Some details of the inflammation caused by yeast and carragenin. J Pharmacol Exp Ther 150: 328-333).

Data set [2] is described as follows: Half-life of Alda-1 (preliminary studies). The data set is classed as in vivo. As to conditions: estimated; reason for multiple doses. How it is done: Alda-1 dose (2 mg/kg/per injection, dissolved in 50% PEG/50% DMSO) was established in preliminary studies and given in multiple doses due to its estimated short half-life. Alda-1 was injected subcutaneously to the dorsal side of the neck 15 minutes before carrageenan or saline, and again at 30 and 150 minutes after carrageenan, prostaglandin E2 or saline injection. One subset of animals received Alda-1 only 30 and 150 minutes after carrageenan injection. Where indicated, naloxone (1 mg/kg per injection) or vehicle (saline) was given 10 minutes prior to each Alda-1 treatment to the dorsal side of the neck.

The target of another data set is T1, mutant ALDH2*2 (Homo sapiens, UniProt P05091, E504K).
T1 sequence (P05091 18-517 E504K): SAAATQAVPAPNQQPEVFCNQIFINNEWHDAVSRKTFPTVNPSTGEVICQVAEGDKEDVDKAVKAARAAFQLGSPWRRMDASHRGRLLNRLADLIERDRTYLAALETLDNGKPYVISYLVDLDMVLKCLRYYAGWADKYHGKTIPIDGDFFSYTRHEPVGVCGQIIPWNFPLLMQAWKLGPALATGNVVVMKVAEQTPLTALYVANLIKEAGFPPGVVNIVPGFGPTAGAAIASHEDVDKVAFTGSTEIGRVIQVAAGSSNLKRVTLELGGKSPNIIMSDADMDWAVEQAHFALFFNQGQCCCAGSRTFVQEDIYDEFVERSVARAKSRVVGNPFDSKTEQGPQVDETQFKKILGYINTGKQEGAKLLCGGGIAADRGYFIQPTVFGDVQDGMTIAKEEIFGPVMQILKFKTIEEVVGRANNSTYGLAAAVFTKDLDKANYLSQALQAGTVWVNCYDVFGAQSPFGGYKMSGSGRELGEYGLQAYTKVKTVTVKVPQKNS
The conditions noted are these: Perez-Miller et al, 2010; cited from earlier work.

Another data set relates to malondialdehyde (MDA). As to the kind of experiment: Thiobarbituric acid-reactive substance assay (malondialdehyde) in paw homogenate. The data set is classed as in vivo, rat. As to conditions: rats, 3 hours after carrageenan; P<0.05. How it is done:
Thiobarbituric acid-reactive substance assay. Thiobarbituric acid-reactive substance (TBARS) was measured using an Oxi-Tek TBARS assay kit (ZeptoMetrix, Buffalo, N.Y.). In brief, 100 μL of plantar homogenates were mixed with 100 μl sodium dodecyl sulfonate solution. TBA/buffer reagent was prepared by mixing 0.5 g thiobarbituric acid with 50 ml acetic acid and 50 ml NaOH. TBA/buffer reagent (2.5 ml) was added to 200 μL sample/sodium dodecyl sulfonate mixture and incubated at 95° C. in capped tubes for 60 min. The samples were cooled to room temperature in an ice bath for 10 min and centrifuged at 3,000 g for 15 min. The supernatants were removed, and fluorescence intensity was measured in semi-microcuvettes in a fluorometer (Bio-Rad Laboratories, Hercules, Calif.). The concentration of TBARS was expressed in pmol/mg protein by interpolation from a standard curve of malondialdehyde at 0-200 pmol concentrations. The results are expressed as percent control.

The subject of another data set is mast cell chymase. Briefly: Western blot of mast cell chymase in paw after carrageenan. The data set is classed as in vivo, rat. The conditions noted are these: rats, 3 hours after carrageenan; Alda-1 versus vehicle. How it is done:
Biochemical Studies In Rats and Mice. Protein was isolated from rat paw tissue at 3 hours after treatment or from liver tissue of mutant or wild type mice. Tissues were homogenized in buffer containing (Hepes 10 mM, NaCl 0.9%, EGTA 1 mM, DTPA 100 μM, Triton-X 1%, Protease and Phosphatase inhibitors (AEBSF, Aprotinin, Bestatin, E-64, Leupeptin, Pepstatin A, Sodium orthovanadate, Sodium molybdate, Sodium tartrate, Imidazole, Cantharidin, (−)-p-Bromolevamisole oxalate and Calyculin A). The samples were centrifuged at 700 g for 5 min at 4° C. Mitochondrial fraction from liver was obtained as previously described (Chen, et al. (2008) Activation of aldehyde dehydrogenase-2 reduces ischemic damage to the heart. Science 321, 1493-1495; Sun, L., et al. ALDH2 activator inhibits increased myocardial infarction injury by nitroglycerin tolerance. Sci Transl Med 3, 107ra111). Activation of aldehyde dehydrogenase-2 reduces ischemic damage to the heart. Science 2008; 321:1493-5). The protein concentration was determined in the supernatants by using Bradford (Bradford, M. M. (1976). A rapid and sensitive method for the quantitation of microgram quantities of protein utilizing the principle of protein-dye binding. Anal Biochem 72, 248-254).
Western blot analysis. […] Quantification analysis of blots was performed with Image J software, using GAPDH as a loading control.

Regarding `O=C(NCc1ccc2c(c1)OCO2)c1c(Cl)cccc1Cl` [Alda-1, N-(1,3-benzodioxol-5-ylmethyl)-2,6-dichlorobenzamide], the “Carrageenan-induced increase in paw diameter (edema)” value in data set [1] is listed as “no differences; also recorded: unaffected”. For the same molecule, the Half-life result in data set [2] is given as “short”. Moreover, the “Effect on activity of mutant ALDH2*2” value at mutant ALDH2*2 is “corrects ALDH2 inactivity”. Further, in the data set with malondialdehyde (MDA), the “Malondialdehyde (MDA) levels in the inflamed paw” value is reported as “reduced”. For the same molecule, the “Mast cell chymase level in the paw” value in the data set on mast cell chymase is recorded as “no differences; also recorded: increased equally”.
